According to ChEMBL document CHEMBL5465560, “Selectivity Literature for EUbOPEN Chemogenomic Library” (2024):

Key:
[1] = molecular target: Tyrosine-protein kinase Fes/Fps (Homo sapiens) (UniProt P07332); test: Selectivity interaction (KinomeScan (DiscoverX)) EUB0001049a FES; conditions: at 1 µM
[2] = molecular target: Mitogen-activated protein kinase kinase kinase 11 (Homo sapiens) (UniProt Q16584); test: Selectivity interaction (Kinase panel (literature)) EUB0001199aCl MAP3K11; conditions: at 1 µM
[3] = molecular target: Protein arginine N-methyltransferase 5 (Homo sapiens, UniProt O14744); test: Selectivity interaction (Scintillation proximity assays) EUB0000230b PRMT5
[4] = molecular target: T1, Serine/threonine-protein kinase Sgk2 (Homo sapiens) (UniProt Q9HBY8); test: Selectivity interaction (KinomeScan (DiscoverX)) EUB0000229b SGK2; conditions: at 10 µM
T1 sequence (whole entry): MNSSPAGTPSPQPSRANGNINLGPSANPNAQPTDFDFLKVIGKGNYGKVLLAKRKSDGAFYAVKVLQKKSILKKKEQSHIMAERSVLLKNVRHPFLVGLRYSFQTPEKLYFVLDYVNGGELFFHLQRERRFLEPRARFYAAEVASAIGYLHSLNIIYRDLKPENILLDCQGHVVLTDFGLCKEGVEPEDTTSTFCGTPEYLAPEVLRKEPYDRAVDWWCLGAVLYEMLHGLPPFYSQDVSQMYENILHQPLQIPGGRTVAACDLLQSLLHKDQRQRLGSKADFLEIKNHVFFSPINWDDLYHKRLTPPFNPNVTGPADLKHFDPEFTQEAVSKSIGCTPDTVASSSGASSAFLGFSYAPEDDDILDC

[5] = molecular target: T2, Myotonin-protein kinase (Homo sapiens) (UniProt Q09013); test: Selectivity interaction (KinomeScan (DiscoverX)) EUB0001079a DMPK; conditions: at 1 µM
T2 sequence (whole entry): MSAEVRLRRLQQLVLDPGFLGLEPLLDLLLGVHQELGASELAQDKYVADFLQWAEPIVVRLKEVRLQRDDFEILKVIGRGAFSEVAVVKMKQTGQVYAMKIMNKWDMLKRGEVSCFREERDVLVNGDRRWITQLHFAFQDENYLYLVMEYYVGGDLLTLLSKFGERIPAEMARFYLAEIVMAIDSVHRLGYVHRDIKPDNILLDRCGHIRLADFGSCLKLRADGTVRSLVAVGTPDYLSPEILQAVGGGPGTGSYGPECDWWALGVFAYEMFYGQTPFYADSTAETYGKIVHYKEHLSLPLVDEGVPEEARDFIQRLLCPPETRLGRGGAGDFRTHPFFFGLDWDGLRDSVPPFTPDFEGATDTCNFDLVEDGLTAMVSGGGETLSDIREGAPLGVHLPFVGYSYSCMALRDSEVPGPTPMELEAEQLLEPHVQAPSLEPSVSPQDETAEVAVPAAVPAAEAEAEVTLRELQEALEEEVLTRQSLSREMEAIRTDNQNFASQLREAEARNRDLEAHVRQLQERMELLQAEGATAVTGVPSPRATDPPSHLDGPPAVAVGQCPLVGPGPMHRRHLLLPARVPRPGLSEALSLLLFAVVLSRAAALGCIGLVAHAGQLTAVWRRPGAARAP

[6] = molecular target: T3, Serine/threonine-protein kinase DCLK2 (Homo sapiens) (UniProt Q8N568); test: Selectivity interaction (KinomeScan (DiscoverX)) EUB0000618a DCLK2; conditions: at 10 µM
T3 sequence (whole entry): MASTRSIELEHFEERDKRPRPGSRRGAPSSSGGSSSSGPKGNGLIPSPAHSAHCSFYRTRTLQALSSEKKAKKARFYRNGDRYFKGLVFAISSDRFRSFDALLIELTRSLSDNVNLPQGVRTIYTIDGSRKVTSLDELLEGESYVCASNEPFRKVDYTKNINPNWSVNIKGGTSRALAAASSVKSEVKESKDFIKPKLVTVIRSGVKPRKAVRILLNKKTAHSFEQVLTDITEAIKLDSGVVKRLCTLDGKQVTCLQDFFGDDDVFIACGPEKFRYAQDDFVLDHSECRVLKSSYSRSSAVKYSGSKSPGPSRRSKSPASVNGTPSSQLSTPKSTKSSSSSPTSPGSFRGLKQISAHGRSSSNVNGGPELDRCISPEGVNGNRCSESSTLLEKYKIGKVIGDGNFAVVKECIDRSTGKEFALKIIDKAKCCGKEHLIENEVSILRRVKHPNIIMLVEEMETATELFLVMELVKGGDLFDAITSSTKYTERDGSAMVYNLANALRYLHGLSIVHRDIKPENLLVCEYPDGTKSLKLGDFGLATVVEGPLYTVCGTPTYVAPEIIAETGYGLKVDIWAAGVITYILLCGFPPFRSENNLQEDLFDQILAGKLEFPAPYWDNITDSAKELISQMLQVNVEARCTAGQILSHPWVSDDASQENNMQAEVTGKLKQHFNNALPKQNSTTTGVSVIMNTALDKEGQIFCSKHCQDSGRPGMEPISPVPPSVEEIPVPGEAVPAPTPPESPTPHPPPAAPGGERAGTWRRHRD

[7] = molecular target: Homeodomain-interacting protein kinase 1 (Homo sapiens, UniProt Q86Z02); test: Selectivity interaction (KinomeScan (DiscoverX)) EUB0000655a HIPK1; conditions: at 10 µM
[8] = molecular target: Mitogen-activated protein kinase kinase kinase kinase 4 (Homo sapiens, UniProt O95819); test: Selectivity interaction (Kinase panel (Z-LYTE Assay)) EUB0001632a MAP4K4; conditions: at 10 µM
Sequence of Mitogen-activated protein kinase kinase kinase kinase 4 (O95819 2-1239 limits assumed): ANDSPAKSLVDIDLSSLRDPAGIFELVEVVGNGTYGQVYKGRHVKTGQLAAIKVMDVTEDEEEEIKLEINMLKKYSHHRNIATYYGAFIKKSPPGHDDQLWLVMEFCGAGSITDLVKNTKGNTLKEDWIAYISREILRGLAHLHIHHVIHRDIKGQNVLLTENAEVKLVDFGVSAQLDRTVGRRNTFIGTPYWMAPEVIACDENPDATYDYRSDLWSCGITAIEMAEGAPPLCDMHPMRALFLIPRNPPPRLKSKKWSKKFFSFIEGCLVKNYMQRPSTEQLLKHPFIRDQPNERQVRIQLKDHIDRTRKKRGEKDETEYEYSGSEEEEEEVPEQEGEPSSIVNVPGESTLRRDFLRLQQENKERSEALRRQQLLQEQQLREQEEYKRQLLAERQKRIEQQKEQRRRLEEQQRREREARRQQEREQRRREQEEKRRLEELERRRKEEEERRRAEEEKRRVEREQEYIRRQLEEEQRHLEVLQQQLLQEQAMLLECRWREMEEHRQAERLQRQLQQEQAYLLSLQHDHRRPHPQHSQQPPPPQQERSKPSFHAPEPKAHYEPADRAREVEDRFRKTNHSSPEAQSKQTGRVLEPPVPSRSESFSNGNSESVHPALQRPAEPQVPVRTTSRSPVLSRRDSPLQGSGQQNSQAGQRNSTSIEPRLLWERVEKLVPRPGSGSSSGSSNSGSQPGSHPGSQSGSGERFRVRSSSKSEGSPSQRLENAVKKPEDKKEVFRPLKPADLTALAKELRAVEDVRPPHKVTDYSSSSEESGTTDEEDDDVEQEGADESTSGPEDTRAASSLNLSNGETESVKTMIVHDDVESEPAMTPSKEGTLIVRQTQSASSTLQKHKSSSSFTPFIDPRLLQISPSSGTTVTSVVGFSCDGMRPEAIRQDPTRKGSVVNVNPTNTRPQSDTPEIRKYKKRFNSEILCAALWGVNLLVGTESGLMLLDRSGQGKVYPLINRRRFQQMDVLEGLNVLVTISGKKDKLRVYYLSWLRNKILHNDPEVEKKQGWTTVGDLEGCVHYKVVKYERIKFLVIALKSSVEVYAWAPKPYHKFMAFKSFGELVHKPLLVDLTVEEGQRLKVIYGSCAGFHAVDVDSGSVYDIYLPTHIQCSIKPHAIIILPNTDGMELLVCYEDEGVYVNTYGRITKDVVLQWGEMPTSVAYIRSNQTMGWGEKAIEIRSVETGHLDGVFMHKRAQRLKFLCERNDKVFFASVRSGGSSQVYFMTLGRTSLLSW

Sequence of Homeodomain-interacting protein kinase 1 (Q86Z02 whole entry, looked up): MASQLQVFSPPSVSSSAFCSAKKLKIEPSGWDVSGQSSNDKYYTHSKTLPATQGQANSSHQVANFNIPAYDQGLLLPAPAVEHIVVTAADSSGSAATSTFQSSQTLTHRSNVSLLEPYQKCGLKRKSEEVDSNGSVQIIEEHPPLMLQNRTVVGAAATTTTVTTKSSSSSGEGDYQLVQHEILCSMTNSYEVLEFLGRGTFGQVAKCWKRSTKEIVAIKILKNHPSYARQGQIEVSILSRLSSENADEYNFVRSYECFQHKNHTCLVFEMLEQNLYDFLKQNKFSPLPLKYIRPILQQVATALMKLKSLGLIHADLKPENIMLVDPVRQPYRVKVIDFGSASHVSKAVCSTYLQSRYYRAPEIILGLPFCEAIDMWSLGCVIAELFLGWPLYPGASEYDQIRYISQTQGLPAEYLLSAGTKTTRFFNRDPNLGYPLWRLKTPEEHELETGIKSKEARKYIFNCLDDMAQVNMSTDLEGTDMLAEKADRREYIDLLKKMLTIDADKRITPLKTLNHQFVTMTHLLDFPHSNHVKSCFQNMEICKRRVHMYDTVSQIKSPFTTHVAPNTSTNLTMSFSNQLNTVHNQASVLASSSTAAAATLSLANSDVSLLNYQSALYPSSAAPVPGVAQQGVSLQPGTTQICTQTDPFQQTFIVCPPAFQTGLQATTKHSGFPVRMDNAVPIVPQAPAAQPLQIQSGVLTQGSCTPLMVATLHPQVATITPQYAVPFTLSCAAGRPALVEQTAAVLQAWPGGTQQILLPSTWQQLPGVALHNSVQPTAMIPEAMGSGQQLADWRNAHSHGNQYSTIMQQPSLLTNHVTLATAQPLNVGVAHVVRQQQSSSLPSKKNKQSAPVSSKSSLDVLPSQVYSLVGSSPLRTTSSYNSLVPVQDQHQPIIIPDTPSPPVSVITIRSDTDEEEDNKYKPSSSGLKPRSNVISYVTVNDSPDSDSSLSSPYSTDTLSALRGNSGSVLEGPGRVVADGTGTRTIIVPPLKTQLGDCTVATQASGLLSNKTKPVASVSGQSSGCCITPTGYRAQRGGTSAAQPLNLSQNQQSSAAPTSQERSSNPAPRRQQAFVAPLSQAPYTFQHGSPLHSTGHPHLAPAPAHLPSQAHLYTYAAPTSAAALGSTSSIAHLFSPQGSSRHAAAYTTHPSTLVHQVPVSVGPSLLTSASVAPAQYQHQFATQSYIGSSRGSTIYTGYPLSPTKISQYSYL
Sequence of Mitogen-activated protein kinase kinase kinase 11 (Homo sapiens) (Q16584 whole entry, looked up): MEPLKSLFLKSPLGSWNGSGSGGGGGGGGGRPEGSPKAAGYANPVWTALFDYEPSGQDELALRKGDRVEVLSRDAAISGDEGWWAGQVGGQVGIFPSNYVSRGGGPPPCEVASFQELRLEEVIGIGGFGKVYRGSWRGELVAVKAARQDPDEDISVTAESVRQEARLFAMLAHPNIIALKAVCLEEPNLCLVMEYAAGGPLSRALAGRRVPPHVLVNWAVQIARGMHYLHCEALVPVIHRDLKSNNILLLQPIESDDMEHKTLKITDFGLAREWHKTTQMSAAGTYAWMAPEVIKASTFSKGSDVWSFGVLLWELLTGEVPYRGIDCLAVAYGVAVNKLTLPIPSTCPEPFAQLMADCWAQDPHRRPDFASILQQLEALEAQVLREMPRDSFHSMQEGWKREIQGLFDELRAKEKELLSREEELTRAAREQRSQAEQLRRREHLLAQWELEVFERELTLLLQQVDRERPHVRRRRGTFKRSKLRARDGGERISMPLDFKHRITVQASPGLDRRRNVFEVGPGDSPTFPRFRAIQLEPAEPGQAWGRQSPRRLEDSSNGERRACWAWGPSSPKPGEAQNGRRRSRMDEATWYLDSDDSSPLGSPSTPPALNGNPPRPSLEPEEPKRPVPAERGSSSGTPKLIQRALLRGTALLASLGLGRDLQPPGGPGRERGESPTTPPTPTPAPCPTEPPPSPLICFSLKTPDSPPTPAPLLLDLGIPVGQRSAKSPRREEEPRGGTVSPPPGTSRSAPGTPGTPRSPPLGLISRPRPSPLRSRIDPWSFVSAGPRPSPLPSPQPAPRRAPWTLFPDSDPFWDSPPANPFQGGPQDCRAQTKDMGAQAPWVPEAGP
Sequence of Tyrosine-protein kinase Fes/Fps (Homo sapiens) (P07332 whole entry): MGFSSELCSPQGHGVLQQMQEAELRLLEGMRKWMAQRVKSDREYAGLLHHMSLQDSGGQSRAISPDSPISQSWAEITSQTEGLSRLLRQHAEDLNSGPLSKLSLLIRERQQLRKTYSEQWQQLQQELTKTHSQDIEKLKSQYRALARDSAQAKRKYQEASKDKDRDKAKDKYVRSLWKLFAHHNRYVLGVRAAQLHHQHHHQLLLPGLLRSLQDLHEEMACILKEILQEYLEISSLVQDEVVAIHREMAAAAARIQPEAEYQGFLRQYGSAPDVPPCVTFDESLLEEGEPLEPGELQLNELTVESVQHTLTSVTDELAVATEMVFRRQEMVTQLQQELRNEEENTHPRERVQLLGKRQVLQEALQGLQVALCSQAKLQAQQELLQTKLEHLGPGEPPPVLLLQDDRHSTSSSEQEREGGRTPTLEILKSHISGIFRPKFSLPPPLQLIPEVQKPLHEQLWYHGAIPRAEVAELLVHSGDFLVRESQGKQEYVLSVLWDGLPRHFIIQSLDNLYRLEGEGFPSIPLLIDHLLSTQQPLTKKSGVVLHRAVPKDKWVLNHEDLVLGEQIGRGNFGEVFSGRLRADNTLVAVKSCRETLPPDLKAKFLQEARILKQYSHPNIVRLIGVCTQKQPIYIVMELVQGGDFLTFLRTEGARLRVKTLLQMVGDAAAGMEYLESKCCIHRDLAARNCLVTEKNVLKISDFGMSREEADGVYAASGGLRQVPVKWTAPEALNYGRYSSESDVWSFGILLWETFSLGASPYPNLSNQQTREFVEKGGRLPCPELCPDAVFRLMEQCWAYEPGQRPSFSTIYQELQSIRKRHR
Sequence of Protein arginine N-methyltransferase 5 (O14744 whole entry): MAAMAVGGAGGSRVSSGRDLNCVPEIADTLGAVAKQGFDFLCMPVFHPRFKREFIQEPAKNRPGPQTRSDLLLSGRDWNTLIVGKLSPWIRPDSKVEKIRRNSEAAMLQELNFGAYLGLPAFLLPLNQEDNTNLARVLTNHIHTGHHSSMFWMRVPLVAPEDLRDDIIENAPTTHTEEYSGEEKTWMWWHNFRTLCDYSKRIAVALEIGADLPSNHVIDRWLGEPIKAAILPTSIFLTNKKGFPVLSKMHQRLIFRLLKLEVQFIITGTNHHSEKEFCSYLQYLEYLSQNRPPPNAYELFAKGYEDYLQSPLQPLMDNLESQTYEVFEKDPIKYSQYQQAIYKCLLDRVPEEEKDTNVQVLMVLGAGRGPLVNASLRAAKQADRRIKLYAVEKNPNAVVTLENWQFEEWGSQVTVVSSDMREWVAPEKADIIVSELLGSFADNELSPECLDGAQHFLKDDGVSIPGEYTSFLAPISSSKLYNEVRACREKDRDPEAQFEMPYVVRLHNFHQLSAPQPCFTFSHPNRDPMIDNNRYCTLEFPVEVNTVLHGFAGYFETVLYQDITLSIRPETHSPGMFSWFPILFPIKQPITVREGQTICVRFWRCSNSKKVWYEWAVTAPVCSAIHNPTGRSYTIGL

`COc1cc(Nc2nc(C)cc(-c3cnn4nc(OC)ccc34)n2)cc(C(F)(F)F)c1` gave a % of control [1] of 95%.

`CN1Cc2nccc(-c3cn(C)nc3-c3ccc(F)cc3)c2C1=O` showed a % of inhibition [2] of 3%.

With `CNCCN1CCC(c2cc(CN(C)C(=O)c3cccc(Oc4ccccc4)c3)ccn2)CC1` the IC50 [3] was > 10 µM.

Compound `COc1cc(N(C)c2ccnc3ccc(C(F)(F)F)cc23)cc(OC)c1OC` has a % binding [4] of 80%.

`Nc1cnc(N2CCc3cc(S(=O)(=O)Nc4c(F)cc(Cl)cc4F)cc(N4CCCC4=O)c32)nc1` [TP-020n] gave a % of control [5] of 100%.

With `O[C@H]1CC[C@H](Nc2ncc3nc(Nc4c(F)cc(F)cc4F)n([C@H]4CCOC4)c3n2)CC1` the % of control [6] was 100%.

`CN(C)CCOc1ccc(-c2nc(-c3ccncc3)c(-c3ccc4c(c3)CC/C4=N\O)[nH]2)cc1` showed a % of control [7] of 11%.

Work on `Cn1cc(-n2cnc3c(NCc4nc5cc(Cl)c(Cl)cc5[nH]4)nc(N4CCOCC4)nc32)cn1` yielded a % of control [8] of 4.98%.
